Measured values published in PubChem BioAssay AID2060604 (Molecular Pharmacology Branch, DTP, NCI, 2025).

Test system: 379773-124-R-J2-PDC complex spheroids, viability % test/control
Test: Anticancer human tumor 379773-124-R-J2-PDC patient-derived endometrial carcinoma cell line growth inhibition [CLK]
Settings: for IC50: curve of first compound; for viability, T/C: stronger effect = lower value; active means viability on the fitted dose curve at most 10% of control; inactive means the rest
Procedure, shortened: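 Multi-cell-type spheroids combined patient-derived tumor cells with HUVEC endothelial cells and human mesenchymal stem cells. Paired agents were dosed in half-log steps down from about clinical Cmax, or from 10 microM where Cmax was unknown.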

[1] = second compound 0.0316 µM, first compound 0.00949 µM
[2] = second compound 0.0316 µM, first compound 0.03 µM
[3] = second compound 0.0316 µM, first compound 0.0949 µM
[4] = second compound 0.0316 µM, first compound 0.3 µM
[5] = second compound 0.1 µM, first compound 0.00949 µM
[6] = second compound 0.1 µM, first compound 0.03 µM
[7] = second compound 0.1 µM, first compound 0.0949 µM
[8] = second compound 0.1 µM, first compound 0.3 µM
[9] = second compound 0.316 µM, first compound 0.00949 µM
[10] = second compound 0.316 µM, first compound 0.03 µM
[11] = second compound 0.316 µM, first compound 0.0949 µM
[12] = second compound 0.316 µM, first compound 0.3 µM
[13] = second compound 1 µM, first compound 0.00949 µM
[14] = second compound 1 µM, first compound 0.03 µM
[15] = second compound 1 µM, first compound 0.0949 µM
[16] = second compound 1 µM, first compound 0.3 µM
[17] = second compound 3.16 µM, first compound 0.00949 µM
[18] = second compound 3.16 µM, first compound 0.03 µM
[19] = second compound 3.16 µM, first compound 0.0949 µM
[20] = second compound 3.16 µM, first compound 0.3 µM
[21] = second compound 10 µM, first compound 0.00949 µM
[22] = second compound 10 µM, first compound 0.03 µM
[23] = second compound 10 µM, first compound 0.0949 µM
[24] = second compound 10 µM, first compound 0.3 µM
[25] = second compound 0.0316 µM, first compound 0.0316 µM
[26] = second compound 0.0316 µM, first compound 0.1 µM
[27] = second compound 0.0316 µM, first compound 0.316 µM
[28] = second compound 0.0316 µM, first compound 1 µM
[29] = second compound 0.0316 µM, first compound 3.16 µM
[30] = second compound 0.0316 µM, first compound 10 µM
[31] = second compound 0.1 µM, first compound 0.0316 µM
[32] = second compound 0.1 µM, first compound 0.1 µM
[33] = second compound 0.1 µM, first compound 0.316 µM
[34] = second compound 0.1 µM, first compound 1 µM
[35] = second compound 0.1 µM, first compound 3.16 µM
[36] = second compound 0.1 µM, first compound 10 µM
[37] = second compound 0.316 µM, first compound 0.0316 µM
[38] = second compound 0.316 µM, first compound 0.1 µM
[39] = second compound 0.316 µM, first compound 0.316 µM
[40] = second compound 0.316 µM, first compound 1 µM
[41] = second compound 0.316 µM, first compound 3.16 µM
[42] = second compound 0.316 µM, first compound 10 µM
[43] = second compound 1 µM, first compound 0.0316 µM
[44] = second compound 1 µM, first compound 0.1 µM
[45] = second compound 1 µM, first compound 0.316 µM
[46] = second compound 1 µM, first compound 1 µM
[47] = second compound 1 µM, first compound 3.16 µM
[48] = second compound 1 µM, first compound 10 µM
[49] = second compound 3.16 µM, first compound 0.0316 µM
[50] = second compound 3.16 µM, first compound 0.1 µM
[51] = second compound 3.16 µM, first compound 0.316 µM
[52] = second compound 3.16 µM, first compound 1 µM
[53] = second compound 3.16 µM, first compound 3.16 µM
[54] = second compound 3.16 µM, first compound 10 µM
[55] = second compound 10 µM, first compound 0.0316 µM
[56] = second compound 10 µM, first compound 0.1 µM
[57] = second compound 10 µM, first compound 0.316 µM
[58] = second compound 10 µM, first compound 1 µM
[59] = second compound 10 µM, first compound 3.16 µM
[60] = second compound 10 µM, first compound 10 µM
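Further: compound exposure lasted seven days before the viability readout.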
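Wherever viability, T/C is given: 100% = DMSO vehicle control wells.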

C=CC(=O)Nc1cc(Nc2nccc(-c3cn(C)c4ccccc34)n2)c(OC)cc1N(C)CCN(C)C + CNC(=O)c1ccc(Nc2nc(OC3CCCC3)c3c(-c4ccc5nc(C)oc5c4)c[nH]c3n2)c(OC)c1
> 300 nM: IC50 (second compound 0.0316 µM)
< 0.949 nM: IC50 (second compound 0.1 µM) | IC50 (second compound 0.316 µM) | IC50 (second compound 1 µM) | IC50 (second compound 3.16 µM) | IC50 (second compound 10 µM)
inactive: viability, T/C (second compound 0.0316 µM, first compound 0.000949 µM) 82.7% | viability, T/C (second compound 0.0316 µM, first compound 0.003 µM) 84.2% | viability, T/C [1] 78.9% | viability, T/C [2] 73% | viability, T/C [3] 77.6% | viability, T/C [4] 58.1% | viability, T/C (second compound 0.1 µM, first compound 0.000949 µM) 35.2% | viability, T/C (second compound 0.1 µM, first compound 0.003 µM) 37% | viability, T/C [5] 42.6% | viability, T/C [6] 31.2% | viability, T/C [7] 32.5% | viability, T/C [8] 38% | viability, T/C (second compound 0.316 µM, first compound 0.000949 µM) 44.7% | viability, T/C (second compound 0.316 µM, first compound 0.003 µM) 39.9% | viability, T/C [9] 32% | viability, T/C [10] 34.5% | viability, T/C [11] 31.3% | viability, T/C [12] 26.2% | viability, T/C (second compound 1 µM, first compound 0.000949 µM) 45.4% | viability, T/C (second compound 1 µM, first compound 0.003 µM) 39% | viability, T/C [13] 31.2% | viability, T/C [14] 28.8% | viability, T/C [15] 26.6% | viability, T/C [16] 30.4% | viability, T/C (second compound 3.16 µM, first compound 0.000949 µM) 30.1% | viability, T/C (second compound 3.16 µM, first compound 0.003 µM) 37.5% | viability, T/C [17] 32.5% | viability, T/C [18] 34.3% | viability, T/C [19] 25.7% | viability, T/C [20] 28.2% | viability, T/C (second compound 10 µM, first compound 0.000949 µM) 30.9% | viability, T/C (second compound 10 µM, first compound 0.003 µM) 30.1% | viability, T/C [21] 27.1% | viability, T/C [22] 35.1% | viability, T/C [23] 28% | viability, T/C [24] 25.9%

CC1(C)CCC(CN2CCN(c3ccc(C(=O)NS(=O)(=O)c4ccc(NCC5CCOCC5)c([N+](=O)[O-])c4)c(Oc4cnc5[nH]ccc5c4)c3)CC2)=C(c2ccc(Cl)cc2)C1 + CNC(=O)c1ccc(Nc2nc(OC3CCCC3)c3c(-c4ccc5nc(C)oc5c4)c[nH]c3n2)c(OC)c1
inactive: viability, T/C [25] 68.1% | viability, T/C [26] 79.2% | viability, T/C [27] 76.3% | viability, T/C [28] 83.6% | viability, T/C [29] 70.9% | viability, T/C [31] 42.1% | viability, T/C [32] 38.5% | viability, T/C [33] 33.8% | viability, T/C [34] 38.1% | viability, T/C [35] 32.5% | viability, T/C [37] 35.6% | viability, T/C [38] 33.2% | viability, T/C [39] 33.7% | viability, T/C [40] 44.9% | viability, T/C [41] 32% | viability, T/C [43] 32% | viability, T/C [44] 31.9% | viability, T/C [45] 30.8% | viability, T/C [46] 38.6% | viability, T/C [47] 28.6% | viability, T/C [48] 2.29% | viability, T/C [49] 31.2% | viability, T/C [50] 33.2% | viability, T/C [51] 42% | viability, T/C [52] 31.2% | viability, T/C [53] 32.7% | viability, T/C [55] 30.8% | viability, T/C [56] 25.5% | viability, T/C [57] 30.7% | viability, T/C [58] 32.7% | viability, T/C [59] 29.3% | viability, T/C [60] 1.59%
active: viability, T/C [30] 0.9% | viability, T/C [36] 1.18% | viability, T/C [42] 1.34% | viability, T/C [54] 0.72%
< 31.6 nM: IC50 (second compound 0.1 µM) | IC50 (second compound 0.316 µM) | IC50 (second compound 1 µM) | IC50 (second compound 3.16 µM) | IC50 (second compound 10 µM)
4460 nM: IC50 (second compound 0.0316 µM)

NC(=O)C(=Cn1cnc(-c2cc(C(F)(F)F)cc(C(F)(F)F)c2)n1)c1cncnc1 + CNC(=O)c1ccc(Nc2nc(OC3CCCC3)c3c(-c4ccc5nc(C)oc5c4)c[nH]c3n2)c(OC)c1
38.6 nM: IC50 (second compound 0.0316 µM)
inactive: viability, T/C [1] 72.8% | viability, T/C [2] 57.6% | viability, T/C [3] 25.4% | viability, T/C [4] 12.7% | viability, T/C [5] 32.3% | viability, T/C [6] 29.7% | viability, T/C [7] 21.4% | viability, T/C [8] 12.4% | viability, T/C [9] 36.7% | viability, T/C [10] 32.8% | viability, T/C [11] 23.8% | viability, T/C [12] 12% | viability, T/C [13] 31.9% | viability, T/C [14] 32.6% | viability, T/C [15] 20.9% | viability, T/C [16] 10.4% | viability, T/C [17] 30.1% | viability, T/C [18] 34.9% | viability, T/C [19] 18.2% | viability, T/C [20] 7.24% | viability, T/C [21] 37.7% | viability, T/C [22] 26.8% | viability, T/C [23] 14.3%
< 9.49 nM: IC50 (second compound 0.1 µM) | IC50 (second compound 0.316 µM) | IC50 (second compound 1 µM) | IC50 (second compound 3.16 µM) | IC50 (second compound 10 µM)
active: viability, T/C (second compound 0.0316 µM, first compound 0.949 µM) 7.15% | viability, T/C (second compound 0.0316 µM, first compound 3 µM) 2.1% | viability, T/C (second compound 0.1 µM, first compound 0.949 µM) 6.65% | viability, T/C (second compound 0.1 µM, first compound 3 µM) 2.59% | viability, T/C (second compound 0.316 µM, first compound 0.949 µM) 5.08% | viability, T/C (second compound 0.316 µM, first compound 3 µM) 1.7% | viability, T/C (second compound 1 µM, first compound 0.949 µM) 3.69% | viability, T/C (second compound 1 µM, first compound 3 µM) 0.49% | viability, T/C (second compound 3.16 µM, first compound 0.949 µM) 2.43% | viability, T/C (second compound 3.16 µM, first compound 3 µM) 0.24% | viability, T/C [24] 7.07% | viability, T/C (second compound 10 µM, first compound 0.949 µM) 2.12% | viability, T/C (second compound 10 µM, first compound 3 µM) 0.82%

Nc1ccccc1NC(=O)c1ccc(CNC(=O)OCc2cccnc2)cc1 + CNC(=O)c1ccc(Nc2nc(OC3CCCC3)c3c(-c4ccc5nc(C)oc5c4)c[nH]c3n2)c(OC)c1
inactive: viability, T/C [25] 87.7% | viability, T/C [26] 81.9% | viability, T/C [27] 95.7% | viability, T/C [28] 70.6% | viability, T/C [29] 29.8% | viability, T/C [31] 32.2% | viability, T/C [32] 40.1% | viability, T/C [33] 36.5% | viability, T/C [34] 27.8% | viability, T/C [35] 11.5% | viability, T/C [37] 44.5% | viability, T/C [38] 40.2% | viability, T/C [39] 27.7% | viability, T/C [40] 25.4% | viability, T/C [41] 15.3% | viability, T/C [43] 39.1% | viability, T/C [44] 29.2% | viability, T/C [45] 28.4% | viability, T/C [46] 20.4% | viability, T/C [47] 14.3% | viability, T/C [49] 31.8% | viability, T/C [50] 30.1% | viability, T/C [51] 25.1% | viability, T/C [52] 21.4% | viability, T/C [53] 12.9% | viability, T/C [55] 38.7% | viability, T/C [56] 30.2% | viability, T/C [57] 25.2% | viability, T/C [58] 17.3% | viability, T/C [59] 12.2%
1820 nM: IC50 (second compound 0.0316 µM)
active: viability, T/C [30] 7.39% | viability, T/C [36] 5.65% | viability, T/C [42] 4.66% | viability, T/C [48] 3.91% | viability, T/C [54] 3.52% | viability, T/C [60] 2.97%
< 31.6 nM: IC50 (second compound 0.1 µM) | IC50 (second compound 0.316 µM) | IC50 (second compound 1 µM) | IC50 (second compound 3.16 µM) | IC50 (second compound 10 µM)
